Measurements as given in US9452980B2, “Substituted benzamides” (Hoffmann-La Roche Inc., priority 2009, dated 2016).
Structures can show the parent of a compound that is named as a salt. Where two headings read alike, the source gives them in different places.

Tests used:
[1] = target: rat TAAR1 (Rattus norvegicus (Rat), UniProt Q923Y9); assay: Radioligand binding assay on rat TAAR1; settings: rat TAAR1, HEK-293 membranes, second value of cell mouse/rat; read-out: Ki (μM) rat
How it was run: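 Membranes from HEK293 cells stably expressing rat TAAR1, with Kd checked per batch by saturation. Competition with ³H-(S)-4-[(ethyl-phenyl-amino)-methyl]-4,5-dihydro-oxazol-2-ylamine, compounds 10 pM–10 μM in duplicate, 1 hr at 4 °C. Filtration then scintillation counting; nonspecific binding defined with 10 μM unlabeled ligand.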

[2] = target: mouse TAAR1 (Mus musculus (Mouse), UniProt Q923Y8); assay: Radioligand binding assay on mouse TAAR1; settings: read-out: Ki (μM) mouse
Chain of mouse TAAR1 (Q923Y8 whole entry): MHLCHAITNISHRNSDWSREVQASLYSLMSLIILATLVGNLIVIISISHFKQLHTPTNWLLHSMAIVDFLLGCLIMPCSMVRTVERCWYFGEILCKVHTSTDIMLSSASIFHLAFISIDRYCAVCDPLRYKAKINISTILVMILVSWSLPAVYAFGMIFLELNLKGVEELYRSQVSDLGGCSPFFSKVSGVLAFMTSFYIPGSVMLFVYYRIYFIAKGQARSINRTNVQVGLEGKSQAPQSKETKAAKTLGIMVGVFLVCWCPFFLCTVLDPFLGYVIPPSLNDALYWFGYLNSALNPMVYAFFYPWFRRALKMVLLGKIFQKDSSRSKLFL
How it was run: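 Membranes were from HEK293 cells stably expressing mouse TAAR1. Compounds from 10 pM to 10 μM, in duplicate, competed with [3H]-(S)-4-[(ethyl-phenyl-amino)-methyl]-4,5-dihydro-oxazol-2-ylamine for 1 h at 4 °C. Nonspecific binding was defined with 10 μM unlabelled ligand, and bound radioactivity was read by filtration and scintillation.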

[3] = mouse TAAR1, HEK-293 membranes, first value of cell mouse/rat

Chain of rat TAAR1 (Q923Y9 whole entry): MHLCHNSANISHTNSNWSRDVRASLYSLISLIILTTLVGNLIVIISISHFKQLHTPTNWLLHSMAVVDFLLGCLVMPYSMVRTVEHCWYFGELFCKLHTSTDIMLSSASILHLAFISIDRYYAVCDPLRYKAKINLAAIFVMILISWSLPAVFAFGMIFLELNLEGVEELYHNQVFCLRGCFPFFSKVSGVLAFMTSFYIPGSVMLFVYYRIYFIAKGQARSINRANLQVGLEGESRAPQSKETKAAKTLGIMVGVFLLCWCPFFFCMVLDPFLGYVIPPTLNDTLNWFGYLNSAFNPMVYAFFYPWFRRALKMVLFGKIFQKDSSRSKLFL

SMILES	Ki [1] [µM]	Ki [2, 3] [µM]	Ki [2] [µM]
O=C(Nc1ccc(C2CCNC2)cc1)c1ncccc1F (racemic) [Example 82, (RS)-3-Fluoro-pyridine-2-carboxylic acid (4-pyrrolidin-3-yl-phenyl)-amide hydrochloride]	1.77	0.713	
O=C(Nc1ccc(C2CCCNC2)cc1)Nc1ccc(Cl)cn1 (racemic) [Example 83, (RS)-1-(5-Chloro-pyridin-2-yl)-3-(4-piperidin-3-yl-phenyl)-urea hydrochloride]	0.012	0.002	
COc1cc(C(=O)Nc2ccc(C3CCNC3)cc2)nc2ccccc12 (racemic) [Example 90, (RS)-4-Methoxy-quinoline-2-carboxylic acid (4-pyrrolidin-3-yl-phenyl)-amide hydrochloride]	0.0101	0.0192	
COc1ccc2nc(C(=O)Nc3ccc(C4CCNC4)cc3)ccc2c1 (racemic) [Example 91, (RS)-6-Methoxy-quinoline-2-carboxylic acid (4-pyrrolidin-3-yl-phenyl)-amide hydrochloride]	0.0223	0.0039	
O=C(Nc1ccc(C2CCCNC2)cc1)c1cccc(Cl)c1 (racemic) [Example 92, (RS)-3-Chloro-N-(4-piperidin-3-yl-phenyl)-benzamide hydrochloride]	0.0238	0.0238	
O=C(Nc1ccc(C2CCNC2)cc1)c1nccc2ccsc12 (racemic) [Example 93, (RS)-Thieno[2,3-c]pyridine-7-carboxylic acid (4-pyrrolidin-3-yl-phenyl)-amide hydrochloride]	0.173	0.04	
COc1ccc(C(=O)Nc2ccc(C3CCNC3)cc2)nc1 (racemic) [Example 94, (RS)-5-Methoxy-pyridine-2-carboxylic acid (4-pyrrolidin-3-yl-phenyl)-amide hydrochloride]	0.379		0.0601
O=C(Nc1ccc(C2CCCNC2)cc1)c1ccc(Cl)c(Cl)c1 (racemic) [Example 96, (RS)-3,4-Dichloro-N-(4-piperidin-3-yl-phenyl)-benzamide hydrochloride]	0.0067	0.0016	
CCOc1ccc(C(=O)Nc2ccc(C3CCCNC3)cc2)cc1 (racemic) [Example 97, (RS)-4-Ethoxy-N-(4-piperidin-3-yl-phenyl)-benzamide hydrochloride]	0.0193	0.0038	
O=C(Nc1ccc(C2CCCNC2)cc1)c1ccc(Cl)cc1Cl (racemic) [Example 99, (RS)-2,4-Dichloro-N-(4-piperidin-3-yl-phenyl)-benzamide hydrochloride]	0.0501	0.013	
O=C(Nc1ccc(C2CCCNC2)cc1)c1ccc(Cl)cc1F (racemic) [Example 100, (RS)-4-Chloro-2-fluoro-N-(4-piperidin-3-yl-phenyl)-benzamide hydrochloride]	0.0308	0.0036	
O=C(Cc1ccc(Cl)cc1)Nc1ccc(C2CCCNC2)cc1 (racemic) [Example 102, (RS)-2-(4-Chloro-phenyl)-N-(4-piperidin-3-yl-phenyl)-acetamide hydrochloride]	0.0894	0.0108	
CC(C(=O)Nc1ccc(C2CCCNC2)cc1)c1cccc(OC(F)(F)F)c1 (racemic) [Example 105, (RS)—N—((RS)-4-Piperidin-3-yl-phenyl)-2-(3-trifluoromethoxy-phenyl)-propionamide]	0.0135	0.0296	
O=C(Nc1ccc(CC2CCCN2)cc1)c1ccc(Cl)cc1 (racemic) [Example 107, (RS)-4-Chloro-N-(4-pyrrolidin-2-ylmethyl-phenyl)-benzamide hydrochloride]	0.0445	0.0027	
O=C(Nc1ccc(CCC2CCNC2)cc1)c1ccc(Cl)cc1 (racemic) [Example 109, (RS)-4-Chloro-N-[4-(2-pyrrolidin-3-yl-ethyl)-phenyl]-benzamide hydrochloride]	0.0176	0.0017	
O=C(Nc1ccc(CCC2CCCNC2)cc1)Nc1ccc(Cl)cn1 (racemic) [Example 115, (RS)-1-(5-Chloro-pyridin-2-yl)-3-[4-(2-piperidin-3-yl-ethyl)-phenyl]-urea hydrochloride]	0.0118	0.32	
O=C(Nc1ccc(Cl)cc1)Nc1ccc(CCC2CCNC2)cc1 (racemic) [Example 116, (RS)-1-(4-Chloro-phenyl)-3-[4-(2-pyrrolidin-3-yl-ethyl)-phenyl]-urea hydrochloride]	0.0014	0.0608	
O=C(Nc1ccc(CCC2CCNC2)cc1)c1ccc(Cl)cn1 (racemic) [Example 117, (RS)-5-Chloro-pyridine-2-carboxylic acid [4-(2-pyrrolidin-3-yl-ethyl)-phenyl]-amide hydrochloride]	0.0029	0.0531	
O=C(Nc1ccc(CCC2CCCNC2)cc1)c1ccc(Cl)cn1 (racemic) [Example 118, (RS)-5-Chloro-pyridine-2-carboxylic acid [4-(2-piperidin-3-yl-ethyl)-phenyl]-amide hydrochloride]	0.0081	0.13	

Now from value to molecule, other results behind:

Ki [1] [µM]	Ki [2, 3] [µM]	SMILES	Ki [2] [µM]
0.0381	0.008	O=C(Nc1ccc(C2CCNC2)cc1)c1ccc2ccccc2n1 (racemic) [Example 84, (RS)-Quinoline-2-carboxylic acid (4-pyrrolidin-3-yl-phenyl)-amide hydrochloride]	
0.116	0.0051	O=C(Nc1ccc(C2CCNC2)cc1)c1cc(Cl)ccn1 (racemic) [Example 86, (RS)-4-Chloro-pyridine-2-carboxylic acid (4-pyrrolidin-3-yl-phenyl)-amide hydrochloride]	
0.017	0.0051	O=C(Nc1ccc(C2CCNC2)cc1)c1ccc(Br)cn1 (racemic) [Example 87, (RS)-5-Bromo-pyridine-2-carboxylic acid (4-pyrrolidin-3-yl-phenyl)-amide hydrochloride]	
0.102	0.0052	COc1ccc(C(=O)Nc2ccc(C3CCNC3)cc2)c(F)c1 (racemic) [Example 88, (RS)-2-Fluoro-4-methoxy-N-(4-pyrrolidin-3-yl-phenyl)-benzamide hydrochloride]	
0.006	0.0059	O=C(Nc1ccc(C2CCNC2)cc1)c1ccc(OCC(F)(F)F)nc1 (racemic) [Example 89, (RS)—N-(4-Pyrrolidin-3-yl-phenyl)-6-(2,2,2-trifluoro-ethoxy)-nicotinamide hydrochloride]	
0.322	0.0385	COc1ccc(C(=O)Nc2ccc(C3CCNC3)cc2)c(OC)n1 (racemic) [Example 95, (RS)-2,6-Dimethoxy-N-(4-pyrrolidin-3-yl-phenyl)-nicotinamide]	
0.0114	0.0041	O=C(Nc1ccc(C2CCCNC2)cc1)c1ccc(C(F)(F)F)cc1 (racemic) [Example 98, (RS)—N-(4-Piperidin-3-yl-phenyl)-4-trifluoromethyl-benzamide hydrochloride]	
0.0263	0.002	O=C(CCc1ccc(Cl)cc1)Nc1ccc(C2CCCNC2)cc1 (racemic) [Example 101, (RS)-3-(4-Chloro-phenyl)-N-(4-piperidin-3-yl-phenyl)-propionamide hydrochloride]	
0.0646	0.705	CC(C(=O)Nc1ccc(C2CCCNC2)cc1)c1ccc(Cl)cc1 (racemic) [Example 103, (RS)-2-(4-Chloro-phenyl)-N—((RS)-4-piperidin-3-yl-phenyl)-propionamide]	
1.43	0.0248	O=C(Nc1ccc(C2CCCNC2)cc1)c1ncc(F)cc1F (racemic) [Example 106, (RS)-3,5-Difluoro-pyridine-2-carboxylic acid (4-piperidin-3-yl-phenyl)-amide hydrochloride]	
0.0081	0.0046	O=C(Nc1ccc(C2CCNC2)cc1)c1cc2ccccc2c(Cl)n1 (racemic) [Example 108, (RS)-1-Chloro-isoquinoline-3-carboxylic acid (4-pyrrolidin-3-yl-phenyl)-amide hydrochloride]	
0.0375	0.0021	O=C(Nc1ccc(CCC2CCCNC2)cc1)c1ccc(Cl)cc1 (racemic) [Example 110, (RS)-4-Chloro-N-[4-(2-piperidin-3-yl-ethyl)-phenyl]-benzamide hydrochloride]	
0.0382	0.0349	CC(C(=O)Nc1ccc(C2CCCNC2)cc1)c1cccc(Cl)c1 (racemic) [Example 111, (RS)-2-(3-Chloro-phenyl)-N—((RS)-4-piperidin-3-yl-phenyl)-propionamide]	
0.0074	0.0836	O=C(Nc1ccc(CCC2CCNC2)cc1)Nc1ccc(Cl)cn1 (racemic) [Example 114, (RS)-1-(5-Chloro-pyridin-2-yl)-3-[4-(2-pyrrolidin-3-yl-ethyl)-phenyl]-urea hydrochloride]	
0.0018	0.0365	O=C(Nc1ccc(Cl)cc1)Nc1ccc(CCC2CCCNC2)cc1 (racemic) [Example 119, (RS)-1-(4-Chloro-phenyl)-3-[4-(2-piperidin-3-yl-ethyl)-phenyl]-urea hydrochloride]	
0.0013	0.0004	O=C(Nc1ccc(C2CCNC2)cc1)OCCc1ccc(Cl)cc1 (racemic) [Example 120, (RS)-(4-Pyrrolidin-3-yl-phenyl)-carbamic acid 2-(4-chloro-phenyl)-ethyl ester]	
0.0004	0.0005	O=C(Nc1ccc(C2CCNC2)cc1)OCCc1cccc(Cl)c1 (racemic) [Example 121, (RS)-(4-Pyrrolidin-3-yl-phenyl)-carbamic acid 2-(3-chloro-phenyl)-ethyl ester]	
